Five compounds from publication PMC10569036 can be followed below.

A short description of data set [1]: shake flask on a mixture of 185; loss from the water phase only; LC-QTOF peak areas. As to conditions: room.
The nature of data set [2]: shake flask on a mixture of 185; loss from the water phase only; LC-Orbitrap peak areas. As to conditions: room.

`Cc1oncc1C(=O)Nc1ccc(C(F)(F)F)cc1`: in data set [1], the “log partition 1-octanol / HPLC water, unbuffered, traces of methanol / DMSO” value (from here on “log partition 1-octanol / HPLC water”) is given as 2.576 log10; the “log partition butyl acetate / HPLC water, unbuffered, traces of methanol / DMSO” value (shortened to “log partition butyl acetate / HPLC water”) amounted to 3.034 log10; the “log partition chloroform / HPLC water, unbuffered, traces of methanol / DMSO” value (“log partition chloroform / HPLC water” below) amounted to 2.805 log10; the “log partition cyclohexane / HPLC water, unbuffered, traces of methanol / DMSO” value (shortened to “log partition cyclohexane / HPLC water”) turned out to be 0.2033 log10. For the same compound, in data set [1], the “log partition dichloromethane / HPLC water, unbuffered, traces of methanol / DMSO” value is 2.511 log10; the “log partition n-hexane / HPLC water, unbuffered, traces of methanol / DMSO” value (from here on “log partition n-hexane / HPLC water”) was 0.07872 log10; the “log partition n-octane / HPLC water, unbuffered, traces of methanol / DMSO” value (from here on “log partition n-octane / HPLC water”) worked out at 0.112 log10; the “log partition n-undecane / HPLC water, unbuffered, traces of methanol / DMSO” value (from here on “log partition n-undecane / HPLC water”) is on record as 0.08618 log10. For the same compound, in data set [1], the “log partition oleylalcohol / HPLC water, unbuffered, traces of methanol / DMSO” value (“log partition oleylalcohol / HPLC water” below) was 2.816 log10 and the “log partition toluene / HPLC water, unbuffered, traces of methanol / DMSO” value (“log partition toluene / HPLC water” for short) amounted to 2.381 log10. In data set [2], the “log partition 1-octanol / HPLC water” value was 1.455 log10; the “log partition butyl acetate / HPLC water” value amounted to 1.635 log10; the “log partition chloroform / HPLC water” value came out at 1.002 log10; the “log partition cyclohexane / HPLC water” value amounted to 0.009613 log10. In data set [2], the “log partition dichloromethane / HPLC water, unbuffered, traces of methanol / DMSO” value came out at 1.347 log10; the “log partition n-hexane / HPLC water” value is on record as -0.1226 log10; the “log partition n-octane / HPLC water” value is on record as -0.1369 log10; the “log partition n-undecane / HPLC water” value is -0.387 log10. For the same compound, in data set [2], the “log partition oleylalcohol / HPLC water” value stood at 1.068 log10 and the “log partition toluene / HPLC water” value is listed as 0.7892 log10.

In the case of `CCc1ccc(C(=O)NN(C(=O)c2cc(C)cc(C)c2)C(C)(C)C)cc1`, in data set [1], the “log partition 1-octanol / HPLC water” value stood at 1.362 log10; the “log partition butyl acetate / HPLC water” value was found to be 1.733 log10; the “log partition chloroform / HPLC water” value is 1.756 log10; the “log partition cyclohexane / HPLC water” value turned out to be 1.284 log10. Further, in data set [1], the “log partition dichloromethane / HPLC water, unbuffered, traces of methanol / DMSO” value turned out to be 1.824 log10; the “log partition n-hexane / HPLC water” value was 1.035 log10; the “log partition n-octane / HPLC water” value was determined as 0.9128 log10; the “log partition n-undecane / HPLC water” value amounted to 0.8541 log10. In addition, in data set [1], the “log partition oleylalcohol / HPLC water” value came out at 1.649 log10 and the “log partition toluene / HPLC water” value was 1.989 log10. For the same compound, in data set [2], the “log partition 1-octanol / HPLC water” value turned out to be 1.544 log10; the “log partition butyl acetate / HPLC water” value is 1.55 log10; the “log partition chloroform / HPLC water” value was determined as 1.889 log10; the “log partition cyclohexane / HPLC water” value is reported as 2.061 log10. Further, in data set [2], the “log partition dichloromethane / HPLC water, unbuffered, traces of methanol / DMSO” value is 1.493 log10; the “log partition n-hexane / HPLC water” value came out at 1.296 log10; the “log partition n-octane / HPLC water” value is reported as 1.432 log10; the “log partition n-undecane / HPLC water” value worked out at 1.36 log10. In data set [2], the “log partition oleylalcohol / HPLC water” value was 0.7925 log10 and the “log partition toluene / HPLC water” value is listed as 1.17 log10.

Take `C#CC(C)(C)NC(=O)c1cc(Cl)cc(Cl)c1`: in data set [1], the “log partition 1-octanol / HPLC water” value came to 2.331 log10; the “log partition butyl acetate / HPLC water” value is reported as 2.368 log10; the “log partition chloroform / HPLC water” value came to 2.908 log10; the “log partition dichloromethane / HPLC water, unbuffered, traces of methanol / DMSO” value is given as 2.85 log10. Moreover, in data set [1], the “log partition oleylalcohol / HPLC water” value worked out at 2.008 log10 and the “log partition toluene / HPLC water” value is recorded as 2.121 log10. Also, in data set [2], the “log partition 1-octanol / HPLC water” value is 2.462 log10; the “log partition butyl acetate / HPLC water” value is 2.969 log10; the “log partition chloroform / HPLC water” value came out at 1.414 log10; the “log partition dichloromethane / HPLC water, unbuffered, traces of methanol / DMSO” value is recorded as 3 log10. In data set [2], the “log partition oleylalcohol / HPLC water” value is given as 2.211 log10 and the “log partition toluene / HPLC water” value is recorded as 2.779 log10.

Turning to `c1coc(-c2nc3ccccc3[nH]2)c1`, in data set [1], the “log partition 1-octanol / HPLC water” value turned out to be 1.514 log10; the “log partition butyl acetate / HPLC water” value was 1.818 log10; the “log partition chloroform / HPLC water” value was 1.228 log10; the “log partition cyclohexane / HPLC water” value is -0.8199 log10. In data set [1], the “log partition dichloromethane / HPLC water, unbuffered, traces of methanol / DMSO” value was determined as 1.187 log10; the “log partition n-hexane / HPLC water” value is -1.048 log10; the “log partition n-octane / HPLC water” value is on record as -0.9024 log10; the “log partition n-undecane / HPLC water” value is listed as -1.111 log10. Besides, in data set [1], the “log partition oleylalcohol / HPLC water” value is 1.545 log10 and the “log partition toluene / HPLC water” value is listed as 0.6693 log10. For the same compound, in data set [2], the “log partition 1-octanol / HPLC water” value is on record as 1.137 log10; the “log partition butyl acetate / HPLC water” value is listed as 1.189 log10; the “log partition chloroform / HPLC water” value came to 0.9478 log10; the “log partition cyclohexane / HPLC water” value is -0.1735 log10. In addition, in data set [2], the “log partition dichloromethane / HPLC water, unbuffered, traces of methanol / DMSO” value was found to be 1.025 log10; the “log partition n-hexane / HPLC water” value is on record as -0.2475 log10; the “log partition n-octane / HPLC water” value was -0.314 log10; the “log partition n-undecane / HPLC water” value is -0.8377 log10. Further, in data set [2], the “log partition oleylalcohol / HPLC water” value is recorded as 1.389 log10 and the “log partition toluene / HPLC water” value is recorded as 0.5283 log10.

In the case of `CN(C1CCCCC1)S(=O)(=O)c1ccccc1N`, in data set [1], the “log partition 1-octanol / HPLC water” value is -0.8134 log10; the “log partition butyl acetate / HPLC water” value is reported as 0.2235 log10; the “log partition chloroform / HPLC water” value worked out at 0.4748 log10; the “log partition cyclohexane / HPLC water” value is given as -0.5397 log10. In data set [1], the “log partition dichloromethane / HPLC water, unbuffered, traces of methanol / DMSO” value was found to be 0.1793 log10; the “log partition n-hexane / HPLC water” value is -0.5682 log10; the “log partition n-octane / HPLC water” value was -0.5115 log10; the “log partition n-undecane / HPLC water” value is recorded as -0.8537 log10. For the same compound, in data set [1], the “log partition oleylalcohol / HPLC water” value was -0.9123 log10 and the “log partition toluene / HPLC water” value is reported as -0.3194 log10. In data set [2], the “log partition 1-octanol / HPLC water” value is 1.192 log10; the “log partition butyl acetate / HPLC water” value is recorded as 0.997 log10; the “log partition chloroform / HPLC water” value is recorded as 0.5005 log10; the “log partition cyclohexane / HPLC water” value is recorded as 0.7696 log10. In addition, in data set [2], the “log partition dichloromethane / HPLC water, unbuffered, traces of methanol / DMSO” value is reported as 1.312 log10; the “log partition n-hexane / HPLC water” value turned out to be 0.8609 log10; the “log partition n-octane / HPLC water” value is 0.7922 log10; the “log partition n-undecane / HPLC water” value was found to be 0.7687 log10. Besides, in data set [2], the “log partition oleylalcohol / HPLC water” value came out at 1.252 log10 and the “log partition toluene / HPLC water” value was 0.9027 log10.
